In article PMC12406734, “B3GALT6 mutations lead to compromised connective tissue biomechanics in Ehlers-Danlos syndrome” (JCI Insight, 2025):

Molecular target: T1, GlcAT-I (GST-GlcAT-I) (Homo sapiens, UniProt O94766)
T1 construct: gene B3GAT3; truncated GlcAT-I, GST fusion, E. coli, purified
T1 sequence (O94766 29-335 limits assumed): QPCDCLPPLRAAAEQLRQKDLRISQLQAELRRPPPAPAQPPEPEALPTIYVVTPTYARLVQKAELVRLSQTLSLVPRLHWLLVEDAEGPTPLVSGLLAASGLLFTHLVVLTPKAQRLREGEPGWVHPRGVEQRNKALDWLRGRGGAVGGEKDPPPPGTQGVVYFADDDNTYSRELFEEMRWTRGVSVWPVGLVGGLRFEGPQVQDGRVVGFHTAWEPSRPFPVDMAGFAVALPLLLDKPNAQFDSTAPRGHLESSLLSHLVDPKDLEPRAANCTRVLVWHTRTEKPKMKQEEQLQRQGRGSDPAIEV
Assay: UDP-Glo glycosyltransferase assay
Assay type: biochemical
Conditions: acceptor; 5 mM UDP-GlcA, 100 mM sodium acetate pH 6.5, 10 mM MnCl2, 37 °C, 60 min

`COc1ccc2ccc(O[C@@H]3OC[C@@H](O[C@@H]4O[C@H](CO)[C@H](O)[C@H](O[C@@H]5O[C@H](CO)[C@H](O)[C@H](O)[C@H]5O)[C@H]4O)[C@H](O)[C@H]3O)cc2c1` [Gal-Gal-Xyl-OMN] was tested. Which UDP-Glo glycosyltransferase assay did it give?
Its UDP-Glo glycosyltransferase assay is “GlcAT-I was highly active towards the trisaccharide Gal-Gal-Xyl-OMN”.
